Test results from US7435721B2, “Transport peptides such as C-terminal Erns peptide and analogues thereof” (Pepscan Systems B.V., priority 2000, dated 2008).
*: point of attachment. Biotin = O=C1N[C@H]2[C@H](CS[C@H]2CCCCC(=O)*)N1

System: live cells in suspension or subconfluent monolayers
Type: cell-based

| Substance | Concentration (translocation activity), mapping of restrictocin L3 loop [µM] | Concentration (translocation activity), optimization of E^rns peptide [µM] |
| --- | --- | --- |
| Biotin-GNGKLIKGRTPIKFGKADCDRPPKHSQNGM-NH2 | 3.0 |  |
| Biotin-GRQLRIAGKRLRGRSK-NH2 [MDR-25] |  | 0.3 |
| Biotin-GRQLRIAGRRLRRRSR-NH2 [MDM-26] |  | 0.1 |
| Biotin-GRQLRRAGRRLRGRSR-NH2 [MDM-25] |  | 0.1 |
| Biotin-GRQLRRAGRRLRRRSR-NH2 [MDM-27] |  | 0.1 |
